Patent US20140314697A1, “Method for Inhibiting Inflammation and Reducing Melanophilin Expression with Glycine Derivatives And the Composition Thereof” (CORUM INC., priority 2013, published 2014)

What was measured:
[1] = tested on: Mlph (melanophilin) mRNA in B16-F10 cells; experiment: Reduction of melanophilin expression on transcriptional level (qPCR); assay type: cell-based, Murine
Protocol: Murine melanoma cell line B16-F10 (BCRC No. 60031)
a. Rinse the confluent B16-F10 cells with sterile D-PBS then trypsinize all cells and perform cell counting.
b. Seeding 2E+06 cells per 10-cm dish.
c. Incubate B16F10 cells at 37° C., 5% CO2 for about 24 hours.
d. Prepared 0.5% testing material in Complete Medium.
e. Discard the medium and add 9 mL Complete Medium and 0.5% testing material into B16-F10 cells in 10-cm dish.
f. Incubate B16-F10 cells at 37° C., 5% CO2 for about 1 hour.
g. After incubating for about 1 hour, discard the supernatant and wash the B16-F10 cells with sterile D-PBS.
h. Add 3 mL Trizol to suspend cells and qPCR test by Welgene Biotech Co., Ltd (outsourcing test).

[2] = tested on: skin color (hyper pigmentation); experiment: Skin whitening test: skin color changes (L* value), Minolta chromameter; assay type: in vivo, human; details: for Hyper pigmentation Reduction - Skin Color Data, Max % Improvement / Hyper pigmentation Reduction - Skin Color Data, % Difference: 0.2% Ac-Gly-β-Ala sample; for Hyper pigmentation Reduction - Skin Color Data, % Difference: L* value
Protocol: In this example, the in-vivo skin test is finished by AMA Laboratories USA. The skin color changes are evaluated with Minolta chromameter color computer system. The Age spot photography is evaluated with Reverse Photo Engineering Quantitative Analysis.
In terms of skin color changes, the participants were women aged 25-48 years old, wherein nine of the participants were caucasian, and one was Asian. The participants were tested before (baseline), and after using 14, 28, 56 days with Minolta chromameter color computer system to perform the skin color change evaluation. And the samples used for the skin color change evaluation is 0.2% Ac-Gly-β-Ala.

[3] = tested on: Mouse IL-6 secretion, RAW264.7; experiment: Mouse IL-6 production in Raw264.7 cells (ELISA); assay type: cell-based; details: for Mouse IL-6 Content, Average / Mouse IL-6 Content, Entry 2 / Mouse IL-6 Content, Entry 3 / Mouse IL-6 Content, Entry 1: Raw264.7, LPS & IFN-r, 24 hours, Positive Control 100%; for Mouse IL-6 Content, Entry 2: passage N + 3; for Mouse IL-6 Content, Entry 3: passage N + 6; for Mouse IL-6 Content, Entry 1: passage N + 7
Protocol: (§1) Murine macrophage cell line RAW264.7 (BCRC No. 60001)
(§2) Complete Medium (as negative control): DMEM medium with 10% Fetal Bovine Serum
(§3) Testing Medium (as positive control): 100 ng/mL LPS and 10 ng/mL IFN-r in Complete Medium
(§4) a. Rinse the confluent Raw264.7 cells with sterile D-PBS then trypsinize all cells and perform cell counting.
(§5) b. Dilute the cell density to 2E+05/mL and seed 0.1 mL cell liquid (equals to 2E+04 cells) each well in 96-well plate.
(§6) c. Incubate Raw264.7 cells at 37° C., 5% CO2 for about 24 hours.
(§7) d. Prepared 2× dosing solution of testing material in 2× Testing Medium (means w/ 200 ng/mL ? LPS&20 ng/mL ? IFN-r): 0.8%, 0.4%, 0.2%, 0.1% (Final testing material: 0.4%, 0.2%, 0.1%, 0.05%)
(§8) e. […] Add 100 μL controls and testing materials in different concentrations into Raw264.7 cells in 96 well plates. Controls/Test materials should be tested at least three wells.
(§9) f. Incubate Raw264.7 cells at 37° C., 5% CO2 for about 24 hours.
(§10) g. After incubating for about 24 hours, collect the supernatant of controls and testing materials.
(§11) h. Determine the IL-6/MIP-2 content of the supernatant by R&D ELISA kit as mentioned previously.

[4] = tested on: Mouse MIP-2 secretion, RAW264.7; experiment: Mouse MIP-2 production in Raw264.7 cells (ELISA); assay type: cell-based; details: for Mouse MIP-2 Content, Average / Mouse MIP-2 Content, Entry 2 / Mouse MIP-2 Content, Entry 1 / Mouse MIP-2 Content, Entry 3: Raw264.7, LPS & IFN-r, 24 hours, Positive Control 100%; for Mouse MIP-2 Content, Entry 2: passage N + 3; for Mouse MIP-2 Content, Entry 1: passage N + 5; for Mouse MIP-2 Content, Entry 3: passage N + 6
Protocol: as §1, §2, §3, §4, §5, §6, §7, §8, §9, §10, §11

[5] = 0.5% Ac-Gly-β-Ala, B16-F10, about 1 hour, Control 100%

With `CC(=O)NCC(=O)NCCC(=O)O` [Ac-Gly-β-Ala, 3-(2-acetylamino-acetylamino)-propionic acid] the “Mlph mRNA expression level, Average” value [1, 5] was 55%, the “Mlph mRNA expression level, Entry 1” value [1, 5] was 80% and the “Mlph mRNA expression level, Entry 2” value [1, 5] was 40%. For the same compound, the “Mlph mRNA expression level, Entry 3” value [1, 5] was 46%, the “effect on Mlph in transcriptional (mRNA) level” value ([1]; 0.5%, B16-F10) was “inhibitory effect” and the “Hyper pigmentation Reduction - Skin Color Data, Max % Improvement” value ([2]; Day 14) was 62.84%. For the same compound, the “Hyper pigmentation Reduction - Skin Color Data, % Difference” value ([2]; Day 14 vs baseline) was 26.90%*, the “Hyper pigmentation Reduction - Skin Color Data, Max % Improvement” value ([2]; Day 28) was 87.34% and the “Hyper pigmentation Reduction - Skin Color Data, % Difference” value ([2]; Day 28 vs baseline) was 41.07%*. The “Hyper pigmentation Reduction - Skin Color Data, Max % Improvement” value ([2]; Day 56) was 87.97%, the “Hyper pigmentation Reduction - Skin Color Data, % Difference” value ([2]; Day 56 vs baseline) was 41.64%* and the “L* value of skin” value ([2]; test sample with 0.2% Ac-Gly-β-Ala) was “can increase the L* value of skin”. The “IL-6 production, dose dependence” value ([3]; 0.05%-0.4%, Raw264.7) was “dose-dependently inhibited”, the “Mouse IL-6 Content, Average” value ([3]; 0.05%) was 97% and the “Mouse IL-6 Content, Entry 2” value ([3]; 0.05%) was 105%. For the same compound, the “Mouse IL-6 Content, Entry 3” value ([3]; 0.05%) was 95%, the “Mouse IL-6 Content, Entry 1” value ([3]; 0.05%) was 91% and the “Mouse IL-6 Content, Average” value ([3]; 0.10%) was 86%. The “Mouse IL-6 Content, Entry 2” value ([3]; 0.10%) was 96%, the “Mouse IL-6 Content, Entry 3” value ([3]; 0.10%) was 78% and the “Mouse IL-6 Content, Entry 1” value ([3]; 0.10%) was 85%. The “Mouse IL-6 Content, Average” value ([3]; 0.20%) was 54%, the “Mouse IL-6 Content, Entry 2” value ([3]; 0.20%) was 58% and the “Mouse IL-6 Content, Entry 3” value ([3]; 0.20%) was 42%. The “Mouse IL-6 Content, Entry 1” value ([3]; 0.20%) was 64%, the “Mouse IL-6 Content, Average” value ([3]; 0.40%) was 34% and the “Mouse IL-6 Content, Entry 2” value ([3]; 0.40%) was 40%. For the same compound, the “Mouse IL-6 Content, Entry 3” value ([3]; 0.40%) was 40%, the “Mouse IL-6 Content, Entry 1” value ([3]; 0.40%) was 24% and the “MIP-2 production, dose dependence” value ([4]; 0.05%-0.4%, Raw264.7) was “inhibited MIP-2 production in dose-dependent manner”. For the same compound, the “Mouse MIP-2 Content, Average” value ([4]; 0.05%) was 78%, the “Mouse MIP-2 Content, Entry 2” value ([4]; 0.05%) was 79% and the “Mouse MIP-2 Content, Entry 1” value ([4]; 0.05%) was 75%. For the same compound, the “Mouse MIP-2 Content, Entry 3” value ([4]; 0.05%) was 81%, the “Mouse MIP-2 Content, Average” value ([4]; 0.10%) was 65% and the “Mouse MIP-2 Content, Entry 2” value ([4]; 0.10%) was 66%. For the same compound, the “Mouse MIP-2 Content, Entry 1” value ([4]; 0.10%) was 64%, the “Mouse MIP-2 Content, Entry 3” value ([4]; 0.10%) was 65% and the “Mouse MIP-2 Content, Average” value ([4]; 0.20%) was 48%. The “Mouse MIP-2 Content, Entry 2” value ([4]; 0.20%) was 44%, the “Mouse MIP-2 Content, Entry 1” value ([4]; 0.20%) was 50% and the “Mouse MIP-2 Content, Entry 3” value ([4]; 0.20%) was 48%. For the same compound, the “Mouse MIP-2 Content, Average” value ([4]; 0.40%) was 31%, the “Mouse MIP-2 Content, Entry 2” value ([4]; 0.40%) was 32% and the “Mouse MIP-2 Content, Entry 1” value ([4]; 0.40%) was 21%. The “Mouse MIP-2 Content, Entry 3” value ([4]; 0.40%) was 38%.
